Data on 20 molecules can be found in PubChem BioAssay (NCI).

Values joined by “and” are separate entries in the source; they are usually repeats but may differ in a detail not shown here. Equal entries are not always repeated.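 In this assay, cells in 96-well plates receive the compound at five concentrations for 48 hours. Endpoints are linearly interpolated between the surrounding concentrations. Abbreviation: GI50, concentration required for 50% inhibition of growth. TGI marks complete inhibition of growth.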

Some test systems named below: A549 NSCLC; CAKI-1 renal; PC-3 prostate; RPMI-8226 leukemia; RXF 393 renal; SK-MEL-28 melanoma; SNB-19 CNS; SW-620 colon; TK-10 renal; UACC-257 melanoma; UACC-62 melanoma; MCF7 breast; SR leukemia.
What all share (assay): growth of human tumour cells (NCI), 48 h

For `COC(=O)c1cc(Br)c(C(=O)C(Cl)(Cl)Cl)[nH]1`, the TGI in the experiment with A549 NSCLC, in the experiment on CAKI-1 renal, in the experiment with PC-3 prostate, with RPMI-8226 leukemia, in the experiment on RXF 393 renal and in the experiment with SK-MEL-28 melanoma was over 100 µM each time. Further, the TGI in the experiment on SNB-19 CNS, in the experiment on SW-620 colon, in the experiment with TK-10 renal, in the experiment on UACC-257 melanoma and in the experiment on UACC-62 melanoma was over 100 µM in each case.

Take `CC(=O)c1ccc(-c2oc(-c3ccccc3)cc2-c2ccc3c(c2)OCO3)s1`: the TGI was 5.07 µM in the experiment on CAKI-1 renal; over 100 µM in the experiment on MCF7 breast; over 100 µM with RPMI-8226 leukemia; over 100 µM in the experiment with RXF 393 renal; over 100 µM in the experiment with SR leukemia; over 100 µM in the experiment with SW-620 colon. The TGI in the experiment with TK-10 renal, in the experiment with UACC-257 melanoma and with UACC-62 melanoma was over 100 µM each time.

Turning to `N#CN=Nc1cc(Cl)c(N=NC#N)cc1Cl`, the TGI with A549 NSCLC, in the experiment on RXF 393 renal, in the experiment with SK-MEL-28 melanoma, with SNB-19 CNS, in the experiment on SR leukemia and with SW-620 colon was over 100 µM each time. In addition, the TGI in the experiment with TK-10 renal, in the experiment on UACC-257 melanoma and with UACC-62 melanoma was over 100 µM throughout.

`CO/C(=N/N1CC1C(F)(F)F)c1ccncc1` (stereo not given): the TGI in the experiment on CAKI-1 renal, with MCF7 breast, in the experiment on RPMI-8226 leukemia, with RXF 393 renal, in the experiment with SK-MEL-28 melanoma and in the experiment on SNB-19 CNS was over 100 µM in each case. Besides, the TGI with SR leukemia and with UACC-62 melanoma was over 100 µM in each case.

Consider `CCSC(=Nc1ccccc1)SC`, for which the TGI in the experiment with A549 NSCLC, with CAKI-1 renal, in the experiment with RPMI-8226 leukemia, in the experiment with RXF 393 renal, in the experiment with SK-MEL-28 melanoma and with SNB-19 CNS was over 100 µM each time. In addition, the TGI with SW-620 colon, with TK-10 renal, with UACC-257 melanoma and in the experiment on UACC-62 melanoma was over 100 µM throughout.

Regarding `Cc1cc(Cl)nc(NC(=O)CSc2ccc(Cl)cc2)n1`, the TGI in the experiment on A549 NSCLC, with PC-3 prostate, in the experiment with RPMI-8226 leukemia, in the experiment on RXF 393 renal, in the experiment on SK-MEL-28 melanoma and in the experiment on SNB-19 CNS was over 100 µM in each case. In addition, the TGI in the experiment on SR leukemia, in the experiment on SW-620 colon, in the experiment with TK-10 renal, in the experiment on UACC-257 melanoma and in the experiment with UACC-62 melanoma was over 100 µM throughout.

Regarding `Cc1nnc(Nc2ccc(Cl)cc2)o1`, the TGI with A549 NSCLC, in the experiment with CAKI-1 renal, with MCF7 breast, in the experiment on PC-3 prostate, with RXF 393 renal and in the experiment on SK-MEL-28 melanoma was over 10 µM throughout. In addition, the TGI in the experiment with SNB-19 CNS, in the experiment on SW-620 colon, in the experiment with TK-10 renal, with UACC-257 melanoma and with UACC-62 melanoma was over 10 µM throughout.

Consider `CN(C)CCOc1cc2c(c3ccccc13)-c1ccccc1C2=O`, for which the TGI was 22 µM in the experiment with A549 NSCLC; 6.31 µM with CAKI-1 renal; 5.6 µM in the experiment with MCF7 breast; 4.27 µM in the experiment with RPMI-8226 leukemia; 5.3 µM in the experiment with RXF 393 renal; 3.27 µM in the experiment with SK-MEL-28 melanoma. Moreover, the TGI in the experiment on SNB-19 CNS worked out at 8.39 µM; in the experiment on SW-620 colon, 3.87 µM; in the experiment with UACC-257 melanoma, 3.17 µM; with UACC-62 melanoma, 2.97 µM.

With `CC(N)Cc1cccc(C(F)(F)F)c1` (stereo not given), the TGI with A549 NSCLC, in the experiment on CAKI-1 renal, in the experiment with RPMI-8226 leukemia, with RXF 393 renal, in the experiment with SK-MEL-28 melanoma and with SNB-19 CNS was over 100 µM in each case. Besides, the TGI in the experiment on SR leukemia, in the experiment with SW-620 colon, in the experiment on TK-10 renal, with UACC-257 melanoma and in the experiment on UACC-62 melanoma was over 100 µM each time.

Consider `CCC1(O)CC(OC2CC(N(C)C)C(OC3CC(O)C(OC4OC(C)C(=O)C=C4N)C(C)O3)C(C)O2)c2c(O)c3c(c(O)c2C1C(=O)OC)C(=O)c1cccc(O)c1C3=O` (stereo not given), for which the TGI in the experiment with MCF7 breast was 1.4 µM; in the experiment on PC-3 prostate, 0.294 µM and 0.0742 µM; in the experiment on RPMI-8226 leukemia it was 0.0858 µM; with SK-MEL-28 melanoma, 0.17 µM and 0.0205 µM; in the experiment on SNB-19 CNS, 0.976 µM; with SW-620 colon, 0.0845 µM. For the same molecule, the TGI in the experiment with TK-10 renal was 0.0778 µM; in the experiment on UACC-62 melanoma, 0.0375 µM.

Consider `CC1(C)S[C@@H]2[C@H](NC(=O)CCC[C@@H](N)C(=O)O)C(=O)N2[C@H]1C(=O)O`, for which the TGI in the experiment with A549 NSCLC, in the experiment on CAKI-1 renal, with MCF7 breast, with RPMI-8226 leukemia, in the experiment with RXF 393 renal and in the experiment on SK-MEL-28 melanoma was over 50 µM in each case. Also, the TGI was over 50 µM in the experiment with SNB-19 CNS, over 31.6 µM in the experiment on SW-620 colon, over 50 µM in the experiment with UACC-257 melanoma and over 50 µM in the experiment with UACC-62 melanoma.

In the case of `COC(=O)c1cc(C)ccc1/C=C1\Cc2cc(C)c(C)cc2C1=O`, the TGI with A549 NSCLC, in the experiment on CAKI-1 renal, in the experiment with PC-3 prostate, with RPMI-8226 leukemia, in the experiment with RXF 393 renal and in the experiment with SK-MEL-28 melanoma was over 100 µM each time. In addition, the TGI with SNB-19 CNS, in the experiment on SR leukemia, in the experiment on SW-620 colon, in the experiment with TK-10 renal, in the experiment with UACC-257 melanoma and in the experiment with UACC-62 melanoma was over 100 µM each time.

Regarding `O=C(Sc1c(-c2ccccc2)c(=O)n(-c2ccccc2)c(=S)n1-c1ccccc1)c1ccc(Cl)cc1`, the TGI in the experiment on A549 NSCLC, in the experiment with CAKI-1 renal, in the experiment with MCF7 breast, with RXF 393 renal, in the experiment on SK-MEL-28 melanoma and in the experiment on SNB-19 CNS was over 100 µM throughout. Further, the TGI with SR leukemia, in the experiment with SW-620 colon, in the experiment with TK-10 renal, with UACC-257 melanoma and in the experiment with UACC-62 melanoma was over 100 µM throughout.

As to `COC(=O)c1cccc(NC(=O)Nc2ccc3oc(=O)c4ccccc4c3c2)c1`, the GI50 with A549 NSCLC was over 100 µM; in the experiment with MCF7 breast, over 100 µM; with RPMI-8226 leukemia, 24.5 µM; with SK-MEL-28 melanoma, over 100 µM; with SR leukemia, 37 µM; in the experiment on SW-620 colon it was over 100 µM. Besides, the GI50 with UACC-257 melanoma was over 100 µM. Besides, the TGI with A549 NSCLC, in the experiment on MCF7 breast, in the experiment on RPMI-8226 leukemia, with SK-MEL-28 melanoma, with SR leukemia and with SW-620 colon was over 100 µM throughout. For the same molecule, in the experiment with UACC-257 melanoma, the TGI is over 100 µM.

Consider `CS(=O)(=O)c1nc(N)nc2nc[nH]c12`, for which the TGI in the experiment on A549 NSCLC, in the experiment with CAKI-1 renal, in the experiment on RPMI-8226 leukemia, in the experiment on RXF 393 renal, in the experiment on SK-MEL-28 melanoma and with SNB-19 CNS was over 100 µM each time. Moreover, the TGI with SR leukemia, in the experiment with SW-620 colon, in the experiment on TK-10 renal, in the experiment with UACC-257 melanoma and in the experiment with UACC-62 melanoma was over 100 µM each time.

Turning to `CCCCOC(=O)CN1C(=O)c2ccccc2C1=O`, the TGI with A549 NSCLC, in the experiment with CAKI-1 renal, in the experiment on RXF 393 renal, with SK-MEL-28 melanoma, with SNB-19 CNS and in the experiment with SR leukemia was over 100 µM throughout. Besides, the TGI in the experiment on SW-620 colon, with TK-10 renal, in the experiment with UACC-257 melanoma and in the experiment on UACC-62 melanoma was over 100 µM throughout.

On to `NC(=O)/N=C(\N)NC(=O)c1ccccc1`, for which the TGI in the experiment on A549 NSCLC, in the experiment on CAKI-1 renal, in the experiment with PC-3 prostate, with RXF 393 renal, in the experiment with SK-MEL-28 melanoma and in the experiment with SNB-19 CNS was over 100 µM in each case. In addition, the TGI in the experiment on SR leukemia, in the experiment with SW-620 colon, in the experiment on TK-10 renal, in the experiment with UACC-257 melanoma and in the experiment on UACC-62 melanoma was over 100 µM throughout.

As to `CN(C)c1ccc(N=Nc2cccc3ccoc23)cc1`, the TGI in the experiment on A549 NSCLC, in the experiment on CAKI-1 renal, with PC-3 prostate, in the experiment with RPMI-8226 leukemia, in the experiment on RXF 393 renal and with SK-MEL-28 melanoma was over 100 µM in each case. Further, the TGI was over 100 µM in the experiment on SNB-19 CNS; over 76.1 µM with SR leukemia; over 100 µM in the experiment on SW-620 colon; over 100 µM in the experiment on TK-10 renal; over 100 µM with UACC-257 melanoma; over 100 µM in the experiment on UACC-62 melanoma.

Turning to `O=C(O)C(Cc1cccs1)NC(=O)C(F)(F)F` (stereo not given), the TGI in the experiment with A549 NSCLC, with CAKI-1 renal, in the experiment with MCF7 breast, in the experiment on RPMI-8226 leukemia, in the experiment with RXF 393 renal and in the experiment on SK-MEL-28 melanoma was over 100 µM in each case. Further, the TGI in the experiment with SNB-19 CNS, in the experiment with SW-620 colon, with UACC-257 melanoma and in the experiment on UACC-62 melanoma was over 100 µM throughout.

On to `Cc1ccc2c(c1)C(=O)/C(=C1/CCc3ccc(C)cc31)C2`, for which the TGI in the experiment with A549 NSCLC, in the experiment with MCF7 breast, with RPMI-8226 leukemia, in the experiment on RXF 393 renal, in the experiment on SK-MEL-28 melanoma and with SNB-19 CNS was over 100 µM each time. The TGI in the experiment on SR leukemia, in the experiment on SW-620 colon, in the experiment on TK-10 renal, in the experiment with UACC-257 melanoma and in the experiment on UACC-62 melanoma was over 100 µM throughout.
